For one test, the target named is T1, human recombinant LTC4S (Homo sapiens, UniProt Q16873).
T1 construct: expressed in transfected cells; host or cells: HEK293 cells stably expressing LTC4S; microsomal fraction
T1 sequence (Q16873 1-150): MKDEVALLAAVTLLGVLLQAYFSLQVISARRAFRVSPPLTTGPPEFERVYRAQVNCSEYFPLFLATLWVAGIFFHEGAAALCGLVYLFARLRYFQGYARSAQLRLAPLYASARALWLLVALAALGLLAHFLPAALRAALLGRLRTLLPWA
Briefly: Determination of LTC4 synthase activity in microsomes of HEK293 cells expressing LTC4S. The test is classed as biochemical. The following applies: for inhibition of LTC4S activity (in words): microsomal preparations of HEK293 cells expressing human recombinant LTC4S. How it is done:
Determination of LTC4 synthase activity. HEK293 cells stably expressing human recombinant LTC4S (HEK_LTC4S) were used to generate microsomes containing LTC4S. Briefly, HEK_LTC4S cells were frozen in liquid nitrogen and sonicated 3×20 s at 4 °C in homogenization buffer (0.1 M potassium phosphate buffer, pH 7.4, 1 mM phenylmethanesulfonylfluoride, 60 μg/mL soybean trypsin inhibitor, 1 μg/mL leupeptin, 2.5 mM glutathione, and 250 mM sucrose). Lysates were sequentially centrifuged at 10,000×g, 10 min at 4 °C and 174,000×g for 1 h at 4 °C. The microsomal fraction (2.5 μg) was resuspended in assay buffer (0.1 M potassium buffer pH 7.4, plus 5 mM glutathione) and preincubated with the test compound or vehicle (0.1 % DMSO) for 10 min at 4 °C. The reactions were started by adding 1 μM LTA4‐methyl ester (Cayman, Ann Arbor, MI) and stopped after 10 min incubation at 4 °C by 1 vol. ice‐cold methanol. Acidified PBS and LTC4‐methyl ester‐d5 as internal standard were added prior solid phase extraction, and LTC4‐methyl ester formation was analyzed by UPLC‐MS/MS as described.[43] UPLC‐MS/MS was carried out by Acquity UPLC BEH C18 column (1.7 μm, 2.1×50 mm, waters) and QTRAP 5500 Mass spectrometer (AB Sciex). LTC4‐methyl ester and LTC4‐d5 methyl ester (standard) were detected by multiple reaction monitoring in the negative ion mode by a method described previously.[44]
Reversed phase liquid chromatography and mass spectrometry. LTC4S metabolites were separated on an Acquity ultra performance liquid chromatography (UPLC) BEH C18 column (1.7 μm, 2.1×50 mm, Waters, Milford, MA) using an Acquity^TM UPLC system (Waters, Milford, MA, USA) as previously described.[42] The chromatography system was coupled to a QTRAP 5500 Mass Spectrometer (AB Sciex, Darmstadt, Germany) equipped with an electrospray ionization source. LTC4S metabolites were quantified by multiple reaction monitoring in the negative using a previously reported method with a lower limit of detection of 150 to 600 pg mL^−1 and linear quantification range up to 200 ng mL^−1.[22] Automatic peak integration was performed with ANALYST 1.6 software (Sciex, Darmstadt, Germany) using IntelliQuan default settings. Data were normalized on the internal standard PGB1 and are given as relative intensities.

Test [1] has as its system 5‐LOX product formation in human neutrophils. Put plainly: 5-LOX product formation in intact human neutrophils stimulated with A23187 (FLAP-dependent). The following applies: Neutrophil, read-out: IC50 cell‐based 5‐LOX. How it is done: Blood cell isolation and cultivation of cell lines. Human neutrophils were freshly isolated from peripheral blood obtained at the Institute for Transfusion Medicine of the University Hospital Jena (Germany) as described.[45] Briefly, human peripheral blood was collected in heparinized tubes (16 I. E. heparin/mL blood) by venipuncture from fasted (12 h) adult healthy volunteers, with consent, and leukocyte concentrates were prepared by centrifugation (4000×g, 20 min, 20 °C). The subjects had no apparent inflammatory conditions and had not taken anti‐inflammatory drugs for at least ten days prior to blood collection. Neutrophils were immediately isolated by dextran sedimentation and centrifugation on Nycoprep cushions (PAA Laboratories, Linz, Austria) and hypotonic lysis of erythrocytes was performed under hypotonic conditions. Neutrophils were finally resuspended in PBS pH 7.4 containing 1 mg/mL glucose and 1 mM CaCl2 (purity >96‐97 %).
5‐LOX activity assay. […] […] 30 μL 1 N HCl and 500 μL PBS, and 200 ng PGB1 were added and the samples were subjected to solid phase extraction on C18‐columns (100 mg, UCT, Bristol, PA, USA). 5‐LOX products (LTB4, all‐trans isomers of LTB4, and 5‐hydro(pero)xy‐6,8,11,14‐ eicosatetraenoic acid (5‐H(p)ETE) were analyzed by RP‐HPLC and quantities calculated referencing to the internal standard PGB1.

Test [2] addresses T2, 5‐LOX/FLAP interaction (Homo sapiens, UniProt P20292).
T2 construct: expressed in transfected cells; host or cells: HEK293 cells stably transfected with 5-LOX and FLAP
T2 sequence (P20292 1-161): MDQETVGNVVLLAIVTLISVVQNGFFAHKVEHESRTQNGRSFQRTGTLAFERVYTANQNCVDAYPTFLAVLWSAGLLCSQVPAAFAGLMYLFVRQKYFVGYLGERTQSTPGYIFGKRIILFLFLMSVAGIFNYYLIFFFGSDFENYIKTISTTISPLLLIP
Also noted: method as in PMID 24905297, PMID 28839250. The following applies: HEK cells, same experimental conditions; cited from earlier work.

A further test concerns the target T3, human recombinant 5‐LOX (Homo sapiens, UniProt P09917).
T3 construct: made in house; host or cells: Escherichia coli BL21 (DE3)
T3 sequence (P09917 1-674): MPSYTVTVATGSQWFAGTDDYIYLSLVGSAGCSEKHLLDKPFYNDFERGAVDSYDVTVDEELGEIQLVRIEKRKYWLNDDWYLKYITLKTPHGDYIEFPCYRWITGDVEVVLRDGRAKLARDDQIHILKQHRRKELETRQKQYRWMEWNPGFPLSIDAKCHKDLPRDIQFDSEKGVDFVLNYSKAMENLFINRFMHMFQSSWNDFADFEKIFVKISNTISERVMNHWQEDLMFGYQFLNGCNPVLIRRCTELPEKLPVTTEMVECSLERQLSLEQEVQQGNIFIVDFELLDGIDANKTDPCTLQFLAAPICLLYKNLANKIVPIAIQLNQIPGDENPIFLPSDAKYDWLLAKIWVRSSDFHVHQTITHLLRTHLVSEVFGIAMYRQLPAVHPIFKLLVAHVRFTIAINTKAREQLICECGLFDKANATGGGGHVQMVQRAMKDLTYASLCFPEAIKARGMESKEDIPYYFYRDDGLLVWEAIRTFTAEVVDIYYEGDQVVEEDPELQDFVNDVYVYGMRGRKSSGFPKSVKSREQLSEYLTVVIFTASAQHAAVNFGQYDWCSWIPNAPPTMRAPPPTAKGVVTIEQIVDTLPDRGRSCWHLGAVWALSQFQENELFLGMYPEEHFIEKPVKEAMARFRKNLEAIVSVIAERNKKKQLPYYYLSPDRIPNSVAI
Briefly: Human recombinant 5-LOX activity assay (cell-free). The following applies: 20 μM arachidonic acid. It counts as biochemical. How it is done:
Human recombinant 5‐LOX activity assay. Human recombinant 5‐LOX was expressed in Escherichia coli (E. coli BL21 (DE3)) cells and partially purified by affinity chromatography using an ATP‐agarose column as described.[22] Semi‐purified 5‐LOX (specific activity: 1.6 ± 0.2 μg 5‐LOX products per μg protein) was diluted in PBS containing EDTA (1 mM) and ATP (1 mM) to a concentration of 0.5 μg mL^−1 and immediately pre‐incubated with the test compounds (1 μL in DMSO; final DMSO concentration: 0.1 %) for 10 min at 4 °C. Samples were pre‐warmed for 30 s at 37 °C, and 5‐LOX product formation was initiated adding 2 mM CaCl2 and 20 μM arachidonic acid. The reaction was stopped after 10 min at 37 °C adding 1 mL ice‐cold methanol. Formed 5‐LOX metabolites (all‐trans isomers of LTB4 and 5‐H(p)ETE) were extracted and an aliquot of 50 μL analyzed by reversed phase‐HPLC (RP‐HPLC) as described.[23] Data were normalized to the vehicle control to avoid variations independent of test compounds.

Test [3] concerns the target T2, 5‐LOX/FLAP interaction. Put plainly: In situ proximity ligation assay of 5-LOX/FLAP interaction in HEK293 cells. It counts as cell-based. The following applies: HEK293 cells expressing 5-LOX and FLAP, 2.5 μM A23187; 1 d 3 μM. How it is done: Cell culture. The human embryonic kidney cell line HEK293 was cultured as monolayer at 37 °C and 5 % CO2 in DMEM High glucose containing 10 % heat‐inactivated fetal calf serum (FCS), 100 U/mL penicillin and 100 μg/mL streptomycin. HEK293 cells stably expressing human recombinant 5‐LOX and FLAP were selected by 400 μg/mL geneticin and 200 μg/mL hygromycin B, respectively, as described before.[21]
Analysis of 5‐LOX/FLAP interaction by in situ proximity ligation assay. The manufacturer's protocol[46] for proximity ligation assay was used to detect in situ interaction of 5‐LOX with FLAP in HEK293 cells stably expressing both proteins as reported elsewhere.[24] Cells were pretreated with test compounds for 10 min at 37 °C, then treated with 2.5 μM Ca^2+‐ionophore A23187 for another 10 min, fixed, and incubated with primary antibody overnight as described before.[24] Samples were then incubated for 1 h (37 °C) with species‐specific secondary antibodies conjugated with oligonucleotides (PLA probe anti‐mouse MINUS and anti‐rabbit PLUS). The antibody‐bound oligonucleotides formed a DNA circle by addition of ligase (30 min, 37 °C). […] Protein‐protein‐interactions occurred as magenta fluorescent spots analyzed with an Axiovert 200 M microscope (Carl Zeiss) and a Plan Neofluar×40/1.3 Oil (DIC III) objective (Carl Zeiss).

In test [4] the target is T4, mPGES‐1 (Homo sapiens, UniProt O14684).
T4 construct: Microsomes derived from A549 cells expressing mPGES‐1; endogenous in cells; host or cells: A549 cells (microsomes)
T4 sequence (O14684 1-152): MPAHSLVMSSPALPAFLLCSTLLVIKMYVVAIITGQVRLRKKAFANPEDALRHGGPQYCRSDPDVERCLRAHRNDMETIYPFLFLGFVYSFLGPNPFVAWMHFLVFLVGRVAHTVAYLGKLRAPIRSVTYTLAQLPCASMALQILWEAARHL
Briefly: mPGES-1 washout assay in microsomes of A549 cells. It counts as biochemical. The following applies: for residual mPGES-1 enzyme activity: % of vehicle control. How it is done: mPGES‐1 washout assay. Microsomes derived from A549 cells expressing mPGES‐1 were incubated with low (1 μM) or high concentrations (10 μM) of compound 1 d. After 15 min an aliquot of the sample containing 10 μM 1 d was diluted 10‐fold with buffer to reach a final concentration of 1 μM. After another 5 min the substrate PGH2 (20 μM) was added. The reaction was stopped after 60 s to determine PGE2 formation. Washout data are presented as means of residual activity ± SD in % of vehicle treated control for n=3 independent experiments. Outliers were determined using Grubb's test (GraphPad Software, La Jolla, CA). Samples were not blinded.

For test [5], the target named is T4, mPGES‐1. The following applies: cell-free; cited from earlier work.

Like-named read-outs stand apart in the source and are kept apart here.

With `COCCc1ccc(OCc2ccc(-c3cc(F)c([N+](=O)[O-])cc3[N+](=O)[O-])cc2)cc1` [1 e], the IC50 is above 100 µM on human recombinant LTC4S and 3.31 ± 0.27 µM in test [1] (Homo sapiens, 5 h). For the same compound, the “inhibition of LTC4S activity (in words)” value on human recombinant LTC4S is given as “did not show inhibitory activity”.
As to `O=[N+]([O-])c1cc([N+](=O)[O-])c(-c2ccc(COc3cccc4ccccc34)cc2)cc1F` [1 c], at human recombinant LTC4S, the concentration for half-maximal inhibition (IC50) is above 100 µM and the “inhibition of LTC4S activity (in words)” value is “did not show inhibitory activity”. Further, in test [1] (Homo sapiens, 5 h), the IC50 was 4.18 ± 0.16 µM.
Turning to `CC(C)c1ccc2c(c1)c(SC(C)(C)C)c(CC(C)(C)C(=O)O)n2Cc1ccc(Cl)cc1` [MK886], the “effect on 5‐LOX/FLAP interaction (PLA), earlier reports” value at 5‐LOX/FLAP interaction [2] is given as “does block the interaction”.
In the case of `CC(c1cc2ccccc2s1)N(O)C(N)=O` (stereo not drawn) [zileuton], at 5‐LOX/FLAP interaction [2], the “effect on 5‐LOX/FLAP interaction (PLA), earlier reports” value was “inefficiency”.
For `O=[N+]([O-])c1cc([N+](=O)[O-])c(-c2ccc(COc3cccc(C(F)(F)F)c3)cc2)cc1F` [1 a], on human recombinant LTC4S, the IC50 was found to be 1.68 ± 0.21 µM and the “inhibition of LTC4S activity (in words)” value is “significantly inhibited LTC4S activity”. Moreover, the IC50 in test [1] (Homo sapiens, 5 h) was 3.93 ± 0.24 µM.
With `O=[N+]([O-])c1cc([N+](=O)[O-])c(-c2ccccc2COc2cccc(C(F)(F)F)c2)cc1F` [1 d], on human recombinant LTC4S, the “inhibition of LTC4S activity (in words)” value is on record as “significantly inhibited LTC4S activity”. The half-inhibitory concentration (IC50) at human recombinant LTC4S (microsomes of HEK293 cells expressing human recombinant LTC4S, 1 μM LTA4-methyl ester, read-out: IC50 cell‐free LTC4S) stood at 0.93 ± 0.04 µM; on human recombinant 5‐LOX, 3.35 ± 0.22 µM; in test [1] (human neutrophils, 2.5 μM A23187, LTB4, its trans isomers and 5-H(p)ETE) it was 1.4 ± 0.09 µM. Further, the “effect on 5‐LOX/FLAP interaction (PLA)” value on 5‐LOX/FLAP interaction [3] was “able to block the 5‐LOX/FLAP interaction”. Besides, the “residual mPGES-1 enzyme activity” value at mPGES‐1 [4] (1 μM 1 d) worked out at 83.3%; on mPGES‐1 [4] (10 μM 1 d), 21.3%. Moreover, the “mPGES-1 enzymatic activity after washout” value at mPGES‐1 [4] (10-fold dilution from 10 to 1 μM) worked out at 72.5%. On mPGES‐1 [4] (washout experiment), the “mechanism of mPGES-1 inhibition” value is given as “reversible mechanism of inhibition”.
With `O=[N+]([O-])c1cc([N+](=O)[O-])c(-c2ccc(OCc3ccccc3)cc2)cc1F` [1 b], the IC50 on human recombinant LTC4S is above 100 µM; in test [1] (Homo sapiens, 5 h), above 100 µM; on mPGES‐1 [5], 0.6 ± 1.2 µM. The “inhibition of LTC4S activity (in words)” value at human recombinant LTC4S is on record as “did not show inhibitory activity”.

The term IC50 denotes the midpoint of a concentration-inhibition curve.
